Test results from patent publication US20180133211A1, “METHODS AND MATERIALS FOR PROMOTING BONE FORMATION” (Mayo Foundation for Medical Education and Research, priority 2015, published 2018).

Columns and labels:
MC3T3-E1 cells = assay: ECM mineralization by Alizarin Red stain; format: cell-based, mouse; settings: for matrix mineralization (Alizarin Red): MC3T3-E1, as early as 14 days of treatment
Experimental: Differentiation of MC3T3-E1 cells was induced with 50 μg/mL ascorbic acid (Sigma-Aldrich) and 5 mM β-glycerophosphate (Sigma-Aldrich) in medium containing 5% FBS. RAW 264.7 cells were cultured in Dulbecco's modified Eagle's medium (DMEM, Invitrogen, Carlsbad, Calif., USA) supplemented with 10% fetal bovine serum (Hyclone) and 2 mM glutamine (Gibco, Carlsbad, Calif., USA). Cells were seeded in culture dishes at a density of 20,000 cells/cm^2 and cultured overnight unless stated otherwise. Before cells were treated with compounds, the culture medium was changed.
Calvariae from 2 to 3-day-old and from 7-week old C57BL/6 mice were dissected aseptically. The calvarial bone explants were cultured in 48-well plates in α-MEM (Biochrom) containing 10% FCS (Biochrom), 50 μg/mL ascorbic acid (Sigma-Aldrich), 5 mM β-glycerophosphate (Sigma-Aldrich), and 10 μg/mL gentamicin (Sigma-Aldrich). The day after dissection, medium was changed, and a part of the explants was treated with 3 μM L- or DL-SFN for 12 days. Thereafter, one part of the calvariae were fixed for 1 hour in 4% para-formaldehyde (PFA), and mineralization was measured by Alizarin Red S stain (Sigma-Aldrich). For this purpose, Alizarin Red S dye was extracted using 10% cetylpyridinium chloride (CPC) in 10 mM sodiumphosphate (pH=7.0) for 45 minutes at room temperature. Alizarin Red S absorbance was measured at 562 nm in a multi-plate reader (Tecan, Maennedorf, Switzerland) and normalized to total protein amount measured by bicinchoninic acid assay (Thermo Fisher Scientific, Waltham, Mass., USA). From the other part of the calvariae, total RNA was extracted.

RAW 264.7 cells = assay: RT-qPCR mRNA expression; format: cell-based, mouse; settings: RAW 264.7 induced with RANKL and MCSF, co-treatment with SFN
Experimental: Total RNA was extracted using the SV Total RNA Isolation kit (Promega) following the supplier's instructions. cDNA was synthesized from about 0.5 μg RNA using the First Strand cDNA Synthesis kit (Roche) as described by the supplier. The resulting cDNAs were subjected to quantitative PCR amplification with a real-time cycler using the QUANTITECT™ SYBR® Green PCR Kit (Qiagen, Hilden, Germany) for the genes Alpl, Fas, Lox, Tet1, Tet2, and TAQMAN® Gene expression Master Mix (Applied Biosystems, Foster City, Calif., USA) for measuring Runx2, Bglap2, Colla1, Tnfsf11, and 18S rRNA expression (for primers, see Table 1). SYBR-Green RT-qPCR was started with an initial denaturation step at 95° C. for 10 minutes and then continued with 45 cycles consisting of 30 seconds denaturation at 95° C., 30 seconds annealing at primer-specific temperatures, and extension at 72° C. For measurement of the TAQMAN® assays, an initial denaturation at 95° C. for 10 minutes was applied, followed by 45 cycles alternating 60 seconds at 60° C. and 15 seconds at 95° C. All RT-qPCR assays were performed in triplicate, and expression was evaluated using the comparative quantification method (Pfaffl, Nucleic Acids Res., 29:e45 (2001)).

[1] = tested on: primary mouse osteoclasts; assay: Osteoclastic resorption on dentin slices; format: cell-based; settings: 3 μM L- or DL-SFN, 14 days
Experimental: Primary mouse tissues or cells were obtained according to procedures that conform to the regulatory guidelines of the Institutional Animal Care and Use Committee of the Medical University of Vienna. Primary mouse osteoclasts were harvested from 8-week old C57BL/6 mice, which were sacrificed, and bone marrow cells were isolated from tibias and femurs under aseptic conditions and cultured in α-MEM (Biochrom) containing 10% FCS (Biochrom), […] (Sigma-Aldrich) and macrophage colony stimulating factor (MCSF1, 30 ng/mL). After 24 hours, non-adherent cells were seeded onto sterile, 300 μm thick dentin slices (elephant ivory) at 700,000 cells/cm^2 in αMEM supplemented with 10% FBS, 2 mM 1-glutamine, 30 μg/mL gentamycin, 20 ng/mL M-CSF, and 2 ng/mL RANKL (R&D Systems, Minneapolis, Minn., USA). Culture medium was changed twice per week, and cells were cultured for 14 days.
After culturing the primary mouse osteoclasts for 14 days on dentin slices in the presence or absence of 3 μM L- or DL-SFN, substrates were put into water, sonicated for 10 minutes to remove living cells and air-dried. Photographs were obtained by reflected light microscopy (objective 20×) of the entire substrate surface, and resorption trails and pits were analyzed and quantified with standard image analysis software (ImageJ, rsbweb.nih.gov/ij/). […]

[2] = tested on: sham operated or ovariectomized (OVX) C57B16/J female mice; assay: In vivo analysis of SFN effects on bone, μCT; parameters: species or system mouse; settings: OVX mice; mitigation of the OVX-dependent decrease of trabecular number
Experimental: Analysis of SFN on mice was performed using a protocol similar to that described elsewhere (Kong et al., Arthritis Rheum., 62:159-170 (2010)). In the experimental setting herein, eight week old sham operated or ovariectomized (OVX) C57B16/J female mice were purchased from Charles River laboratories. Mice were injected with 7.5 mM DL-SFN (200 μL of SFN at a concentration of 63.8 mg/mL/kg dissolved in ethanol and further diluted in PBS) intraperitoneally every other day for five weeks. Control mice received vehicle alone.
Images from tibias fixed in 4% formaldehyde were acquired in a SkyScan 1174 with a resolution of 6 μm (X-ray voltage 50 kV). Image reconstruction was performed by applying a modified Feldkamp algorithm using the Skyscan Nrecon software. 3D and 2D morphometric parameters were calculated for the trabecular bone (350 consecutive slides, 6 μm thick) starting from 300 μm from the growth plate. Threshold values were applied for segmenting trabecular bone corresponding to bone mineral density values of 0.6/cm^3 calcium hydroxyapatite. 3D parameters were based on analysis of a Marching Cubes type model with a rendered surface. Calculation all of 2D areas and perimeters was based on the Pratt algorithm (Pratt et al., IEEE Trans. Biomed. Eng., 38, 306-309 (1991). Bone structural variables and nomenclature were used according to Bouxsein et al. (J. Bone Miner. Res., 25:1468-1486 (2010)).

MC3T3 cells = assay: Osteogenic differentiation of MC3T3 cells under EZH2 inhibition; format: cell-based, mouse; settings: 1 μM UNC1999
Experimental: MC3T3 cells were seeded in 6-well plates in maintenance medium (10,000 cells/cm^2). The following day, maintenance medium was replaced with osteogenic medium (αMEM supplemented with 50 μg/mL ascorbic acid (Sigma) and 4 mM beta glycerol phosphate (Sigma)) containing vehicle or EZH2 inhibitor. Three days later, vehicle or EZH2 inhibitors were added again with osteogenic medium. On day six, EZH2 inhibitor and vehicle were removed, and fresh osteogenic medium added.
Media were changed every three days. RNA was isolated at indicated times. On day 6, cells were fixed in 10% neutral buffered formalin and stained with 5-bromo-4-chloro-3-indolyl-phosphate/nitro blue tetrazolium to monitor the enzymatic activity of alkaline phosphatase (Promega). On day 14 (AMCs) and days 21-25 (MC3T3), cells were fixed in 10% neutral buffered formalin and stained with 2% Alizarin Red to visualize calcium deposition. Absorption of alizarin red stain was normalized to total DNA as measured by Hoechst staining of the nuclei.

Molecule	matrix mineralization (Alizarin Red) (MC3T3-E1 cells)	expression of classical osteoclastic markers (Acp5, Clcr, Ctsk) (RAW 264.7 cells)	potency in stimulating matrix mineralization relative to DMSO (MC3T3-E1 cells; MC3T3-E1)	area resorbed by primary mouse osteoclast cultures on ivory discs [1]	bone loss due to estrogen-deficiency [2]	osteogenic differentiation of MC3T3 cells (MC3T3 cells)
C[S+](C)[O-] [DMSO, methanesulfinyl methane]	increased matrix mineralization	–	–	–	–	–
1-isothiocyanato-5-methanesulfinylpentane [SFN]	increased matrix mineralization	no appreciable changes	at least four orders of magnitude more potent than DMSO	significantly reduced	reduced bone loss	–
CCCc1cc(C)[nH]c(=O)c1CNC(=O)c1cc(-c2ccc(N3CCN(C(C)C)CC3)nc2)cc2c1cnn2C(C)C [UNC1999, N-[(6-methyl-2-oxo-4-propyl-1,2-dihydropyridin-3-yl)methyl]-1-(propan-2-yl)-6-{6-[4-(propan-2-yl)piperazin-1-yl]pyridin-3-yl}-1H-indazole-4-carboxamide]	–	–	–	–	–	promotes
